Results: patent US20240270821A1, “GIP/GLP1/GCG TRI-RECEPTOR AGONISTS AND USES THEREOF” (priority 2023, published 2024)
Read-outs that look alike come from different tables or passages of the source. Marks after values point to notes of the source that are not given here. Starred links: 1 amine or outer side, 2 acyl side, 3 side chain; linkers in the order of their positions; H or OH if unused. Non-standard residues stand in square brackets, D forms with d. Groups on a side chain read outwards from the residue. *: point of attachment. C20 diacid = O=C(O)CCCCCCCCCCCCCCCCCCC(=O)*; Phe(4-CN) = N#Cc1ccc(C[C@H](N)C(=O)O)cc1; αMePhe(2-F) = C[C@](N)(Cc1ccccc1F)C(=O)O; γGlu = O=C(O)[C@H](CCC(=O)[*:2])N[*:1]; εLys = N[C@@H](CCCCN[*:1])C(=O)[*:2]; αMeL = CC(C)C[C@](C)(N)C(=O)O; AEEA = NCCOCCOCC(=O)O; Aib = CC(C)(N)C(=O)O

Legend:
[1] = In vivo ileum (distal loop) absorption assay; details: Sprague Dawley, rat, 300 μM peptide with 100 mM C10, rats
Description: Ileum absorption of the exemplary polypeptides in the presence of C10 in rats is evaluated using a previously reported intestinal closed loop model (Lawrence, S. A.; Blankenship, R.; Brown, […].; Ellis, B.; Thangaraju, A.; Datta-Mannan, A., Influence of FcRn binding properties on the gastrointestinal absorption and exposure profile of Fc molecules. […] Overnight fasted Sprague Dawley rats with body weights between 250-280 grams are anesthetized by inhaling isoflurane and placed on a warm surgical table maintained by circulating water at 37 °C. The surgical area is shaved, and the skin is disinfected with betadine scrub followed by 70% isopropyl alcohol. An approximately 2 cm ventral midline incision is made to expose intestine, and 10 cm of an ileum segment is tied off. The peptides are formulated with 100 mM C10 in Tris buffer (pH 8.0, 50 mM) at a final concentration of 300 μM. The formulations are administered directly into the ileum loop. […] Blood samples are collected into tubes containing […] (5%) and processed to plasma for subsequent analyses. Peptide concentrations in the plasma are determined by LC/MS.

[2] = target: T1, hGIPR (Homo sapiens, UniProt P48546); test: Functional cAMP activation in the presence of 0.1% casein (no HSA); type: cell-based;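 note: intracellular cAMP rise after 30 min at 37 °C read by HTRF against a standard curve, scaled between buffer alone (0%) and top control ligand concentration (100%), four-parameter fit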
T1 sequence (P48546 22-466): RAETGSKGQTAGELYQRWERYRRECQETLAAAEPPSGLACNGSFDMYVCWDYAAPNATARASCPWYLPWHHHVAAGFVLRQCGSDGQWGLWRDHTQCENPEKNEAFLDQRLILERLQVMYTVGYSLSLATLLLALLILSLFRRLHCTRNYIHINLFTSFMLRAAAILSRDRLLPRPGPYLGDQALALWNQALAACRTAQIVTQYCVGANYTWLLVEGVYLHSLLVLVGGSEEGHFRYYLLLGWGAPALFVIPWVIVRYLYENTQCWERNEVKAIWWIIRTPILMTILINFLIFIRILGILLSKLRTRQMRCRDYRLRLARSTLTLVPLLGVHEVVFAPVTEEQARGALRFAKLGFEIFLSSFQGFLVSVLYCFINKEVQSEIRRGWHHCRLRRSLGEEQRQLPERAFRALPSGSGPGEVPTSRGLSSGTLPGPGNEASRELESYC

[3] = target: T2, hGLP-1R (Homo sapiens, UniProt P43220); test: as above; type: cell-based;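 note: intracellular cAMP rise after 30 min at 37 °C read by HTRF, normalized between buffer only (0%) and maximal control ligand (100%), four-parameter variable-slope fit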
Target sequence in this assay (P43220 24-463): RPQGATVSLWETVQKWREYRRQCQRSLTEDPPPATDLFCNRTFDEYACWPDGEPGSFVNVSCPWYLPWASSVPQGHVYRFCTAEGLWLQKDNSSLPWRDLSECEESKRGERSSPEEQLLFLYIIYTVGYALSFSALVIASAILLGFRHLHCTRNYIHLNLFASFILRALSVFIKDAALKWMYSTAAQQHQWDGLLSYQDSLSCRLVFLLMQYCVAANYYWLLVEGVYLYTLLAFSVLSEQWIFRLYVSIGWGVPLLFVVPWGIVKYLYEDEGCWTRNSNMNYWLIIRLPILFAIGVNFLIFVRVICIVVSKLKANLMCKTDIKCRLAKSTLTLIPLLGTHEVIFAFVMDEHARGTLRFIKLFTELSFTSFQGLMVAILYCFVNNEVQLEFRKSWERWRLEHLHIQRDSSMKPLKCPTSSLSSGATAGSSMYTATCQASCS

[4] = target: human GcgR (Homo sapiens, UniProt P47871); test: Functional cAMP activity in the presence of 1% HSA; type: cell-based
human GcgR, sequence (P47871 26-477): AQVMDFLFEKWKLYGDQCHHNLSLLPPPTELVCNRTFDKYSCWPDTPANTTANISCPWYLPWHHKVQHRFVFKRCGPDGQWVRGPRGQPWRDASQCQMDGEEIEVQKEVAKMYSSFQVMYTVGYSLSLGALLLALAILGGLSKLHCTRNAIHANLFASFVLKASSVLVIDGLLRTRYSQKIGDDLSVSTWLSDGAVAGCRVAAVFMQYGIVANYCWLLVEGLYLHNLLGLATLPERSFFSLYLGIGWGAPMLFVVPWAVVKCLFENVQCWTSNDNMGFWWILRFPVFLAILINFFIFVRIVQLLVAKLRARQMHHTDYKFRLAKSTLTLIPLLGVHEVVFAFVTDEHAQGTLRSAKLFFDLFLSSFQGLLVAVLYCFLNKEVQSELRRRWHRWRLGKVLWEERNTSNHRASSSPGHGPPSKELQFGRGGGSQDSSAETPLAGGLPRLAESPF

[5] = target: human GLP1-R (Homo sapiens, UniProt P43220); test: GLP1-R internalization assay in HEK293 cells; type: cell-based; details: for Internalization % TOP: normalized to maximum concentration of GLP-1 (100%)
human GLP1-R, sequence (P43220 24-463): as the sequence (P43220 24-463) above

[6] = target: T2, hGLP-1R; test: Functional cAMP activity in the presence of 1% HSA; type: cell-based
Target sequence in this assay (P43220 24-463): as above

[7] = target: hGcgR (Homo sapiens, UniProt P47871); test: Functional cAMP activation in the presence of 0.1% casein (no HSA); type: cell-based;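 note: intracellular cAMP rise after 30 min at 37 °C, read by HTRF against a cAMP standard curve, scaled from buffer only (0%) to maximal control ligand response (100%)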
hGcgR, sequence (P47871 26-477): as the sequence (P47871 26-477) above

[8] = target: T1, hGIPR; test: Functional cAMP activity in the presence of 1% HSA; type: cell-based
[9] = target: T2, hGLP-1R; test: GLP-1R CHO cell β-arrestin recruitment assay; type: cell-based; parameters: host or cells: CHO-K1 (PathHunter, assay-ready frozen cells); details: for EC50: CHO-K1 PathHunter, β-arrestin-2, 0.1% casein, read-out: hGLP1R β-arrestin Rel EC50; for % Stimulation Max: normalized to GLP-1(7-36) as maximum control;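 for all read-outs here: luminescence read after 90 min peptide exposure at 37 °C and a further 60 min with detection reagent at room temperature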
Target sequence in this assay (P43220 24-463): as the sequence (P43220 24-463) above
Target sequence in this assay (P32121 whole entry partner): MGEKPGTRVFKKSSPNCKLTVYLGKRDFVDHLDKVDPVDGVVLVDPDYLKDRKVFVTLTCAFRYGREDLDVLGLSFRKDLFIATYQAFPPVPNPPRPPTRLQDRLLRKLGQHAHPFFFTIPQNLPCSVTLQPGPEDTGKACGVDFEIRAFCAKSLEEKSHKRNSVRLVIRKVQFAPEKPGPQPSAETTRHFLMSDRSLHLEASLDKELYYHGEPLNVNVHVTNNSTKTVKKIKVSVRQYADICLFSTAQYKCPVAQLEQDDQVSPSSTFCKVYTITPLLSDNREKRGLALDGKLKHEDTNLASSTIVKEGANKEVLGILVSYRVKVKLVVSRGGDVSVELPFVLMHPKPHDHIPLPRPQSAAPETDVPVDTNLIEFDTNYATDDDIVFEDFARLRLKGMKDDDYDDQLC

[10] = Body weight in diet-induced obese C57BL/6 mice; type: in vivo; details: percent of starting weight, DIO mice, mean ± SEM n=5
Method in brief: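 Male C57BL/6 DIO mice (41-50 g, 5 per group, randomized by weight) on calorie-rich diet received subcutaneous doses 30-90 min before dark onset, QD or Q3D for 9-16 days. Body weight measured daily, expressed as percent of starting weight, mean±SEM.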

[11] = Pharmacokinetics in male Sprague Dawley rats, single subcutaneous administration; details: rat, in vivo, sc, 10 nmol/kg
Description: The pharmacokinetics of the exemplary analogs are evaluated following a single subcutaneous (SC) administration of 10 nmol/kg (dissolved in 40 mM Tris pH8) or single 4 mg/kg (mixed with 250 mM sodium decanoate/C10 in 40 mM Tris pH8) intrajejunal (IJ) administration to male Sprague Dawley rats. Blood samples are collected over 96 hours following SC administration and 72 hours following IJ dosing, and resulting individual plasma concentrations are used to calculate pharmacokinetic parameters. Peptide plasma (K3 EDTA) concentrations are determined using a qualified LC/MS method that measured the intact mass of the analog. Each peptide and an analog as an internal standard are extracted from rat plasma using methanol. A High Resolution Instrument was used for LC/MS detection.

[12] = in the presence of 0.1% casein (no HSA), geometric mean, read-out: Relative cAMP EC50, hGIPR
[13] = in the presence of 0.1% casein (no HSA), geometric mean, read-out: Relative cAMP EC50, hGLP-1R
[14] = HEK293 cells expressing SNAP-GLP-1R, read-out: GLP1R Internalization EC50
[15] = read-out: cAMP Rel EC50, hGLP-1R
[16] = in the presence of 0.1% casein (no HSA), geometric mean, read-out: Relative cAMP EC50, hGcgR

CC[C@H](C)[C@H](NC(=O)[C@H](Cc1ccccc1)NC(=O)[C@H](C)NC(=O)C(C)(C)NC(=O)[C@H](CCC(N)=O)NC(=O)[C@H](C)NC(=O)[C@H](CCCCNC(=O)COCCOCCNC(=O)CC[C@H](NC(=O)CCCCCCCCCCCCCCCCC(=O)O)C(=O)O)NC(=O)[C@H](CCCCN)NC(=O)[C@H](CC(=O)O)NC(=O)[C@H](CC(C)C)NC(=O)[C@](C)(CC(C)C)NC(=O)[C@H](CCC(N)=O)NC(=O)[C@H](CO)NC(=O)[C@H](Cc1ccccc1)NC(=O)[C@H](CC(=O)O)NC(=O)[C@H](CO)NC(=O)[C@@H](NC(=O)[C@H](Cc1ccccc1)NC(=O)[C@@H](NC(=O)CNC(=O)[C@H](CCC(N)=O)NC(=O)C(C)(C)NC(=O)[C@@H](N)Cc1ccc(O)cc1)[C@@H](C)O)[C@@H](C)O)C(=O)N[C@@H](CCC(=O)O)C(=O)N[C@@H](Cc1ccc(O)cc1)C(=O)N[C@@H](CC(C)C)C(=O)N[C@@H](CC(C)C)C(=O)N[C@@H](CCC(=O)O)C(=O)NC(C)(C)C(=O)NCC(=O)N1CCC[C@H]1C(=O)N[C@@H](CO)C(=O)N[C@@H](CO)C(=O)NCC(=O)N[C@@H](C)C(=O)N1CCC[C@H]1C(=O)N1CCC[C@H]1C(=O)N1CCC[C@H]1C(=O)N[C@@H](CO)C(=O)NCC(=O)N[C@@H](CO)C(N)=O [Example 151] gave an AUC [1] of 0.0886 µM·h, a level at time molar at 10 min ([1]; 10 min, read-out: 10 min IL plasma concentration) of 69 nM and a level at time molar at 20 min ([1]; 20 min, read-out: 20 min IL plasma concentration) of 95 nM. It also gave a level at time molar at 40 min ([1]; 40 min, read-out: 40 min IL plasma concentration) of 115 nM, a level at time molar at 1 h ([1]; 60 min, read-out: 60 min IL plasma concentration) of 124 nM and an EC50 [2] of 0.0784 nM. It also gave an EC50 [3] of 1.6 nM, an EC50 [4] of 1420 nM and an EC50 [5] of 77.8 nM. For the same compound, the “Internalization % TOP” value [5] was 55%, the EC50 [6] was 384 nM and the EC50 [7] was 3.5 nM. It also gave an EC50 [8] of 14.9 nM.

In the case of “H-Y[Aib]QGTFTSDYSI[αMeL]LDKK([AEEA-γGlu-C20 diacid])AQRAFIEYLLEGGPSSGEPPPSEG-NH2 [Example 289]”, the EC50 [2, 12] is reported as 0.382 nM, the EC50 [9] is reported as 5.96 nM and the “% Stimulation Max” value [9] is reported as 47.5%. For the same compound, the “Body weight (%)” value ([10]; 10 nmol/kg SC Q3D, 14 days) was 82.32 ± 1.25 %, the “Body weight (%)” value ([10]; 10 nmol/kg SC QD, 16 days) was 60.94 ± 1.87 % and the EC50 [3, 13] was 0.449 nM. For the same compound, the EC50 ([4]; read-out: cAMP Rel EC50, hGcgR) was 1750 nM, the EC50 [5, 14] was 10.9 nM and the “Internalization % TOP” value [5] was 86.5%. The CL/F [11] was 0.0645 mL/min/kg, the half-life [11] was 22.4 h and the EC50 [6, 15] was 139 nM. It also gave an EC50 [7, 16] of 5.02 nM and an EC50 ([8]; read-out: cAMP Rel EC50, hGIPR) of 105 nM.

For “H-Y[Aib]QGTFTSDYSI[αMeL]LDKQAAK([εLys-εLys-γGlu-C20 diacid])QFVEWLLA[Aib]GPSSGEPPPSEG-NH2 [Example 329]”, the EC50 [2, 12] was 0.207 nM, the EC50 [9] was 6.11 nM and the “% Stimulation Max” value [9] was 74.5%. For the same compound, the EC50 [3, 13] was 0.926 nM, the EC50 ([4]; read-out: cAMP Rel EC50, hGcgR) was 842 nM and the EC50 [5, 14] was 34 nM. For the same compound, the “Internalization % TOP” value [5] was 91.1%, the CL/F [11] was 0.322 mL/min/kg and the half-life [11] was 12.6 h. The EC50 [6, 15] was 204 nM, the EC50 [7, 16] was 3.47 nM and the EC50 ([8]; read-out: cAMP Rel EC50, hGIPR) was 42.6 nM.

In the case of “H-Y[Aib]QGT[αMePhe(2-F)]TSD[Phe(4-CN)]SILLDKQAQK([AEEA-AEEA-γGlu-C20 diacid])AFIEYLLEGGPSSGEPPPSEG-NH2 [Example 321]”, the EC50 [2, 12] is reported as 0.0912 nM, the EC50 [9] is reported as 8.78 nM and the “% Stimulation Max” value [9] is reported as 90.1%. For the same compound, the “Body weight (%)” value ([10]; 10 nmol/kg SC Q3D, 14 days) was 87.14 +/− 0.59*** %, the EC50 [3, 13] was 0.798 nM and the EC50 ([4]; read-out: cAMP Rel EC50, hGcgR) was 836 nM. For the same compound, the EC50 [5, 14] was 27.1 nM, the “Internalization % TOP” value [5] was 92.8% and the CL/F [11] was 0.137 mL/min/kg. For the same compound, the half-life [11] was 26.2 h, the EC50 [6, 15] was 110 nM and the EC50 [7, 16] was 4.49 nM. For the same compound, the EC50 ([8]; read-out: cAMP Rel EC50, hGIPR) was 13 nM.
